melting point [°C] | Structure (SMILES)
106 to 108 | COc1cccc(C(=O)CS(C)=O)c1N (stereo unspecified)
68 to 69 | C=CCOC(=O)c1c(C)nc2c(cnn2CCC(=C)C)c1N
160 to 162 | Cc1ccccc1-c1nc2c3ccccc3ccn2c1NC(C)c1ccccc1 (stereo unspecified)
144 | O=C(Nc1cccc(S(=O)(=O)N2CCOCC2)c1)c1cnn2c(C(F)(F)F)cc(-c3ccc(Cl)cc3)nc12
33 to 34 | CCOC(=O)c1cc(I)c(F)c(F)c1F
137 to 138 | O=C(O)CCCOc1cccc2c1Cc1sc(SCC(c3ccccc3)c3ccccc3)nc1-2
100 to 101 | CC(C)(CCCCC=CCCCCC(C)(C)CC(=O)O)CC(=O)O
284 to 286 | C=CCNC1=NS(=O)(=O)c2ccc(Cl)cc2N1
161 to 163 | COc1nc(C)cc(C(=O)O)n1
113 to 114 | COC(=O)c1nc(C)c(F)c(N)c1Cl
114 to 115 | CC(F)c1ncnc(NCc2ccc(C(C)(C)C)cc2)c1I (stereo unspecified)
190 to 209 | O=C1c2ccccc2C(=O)N1Cc1ccccc1[N+](=O)[O-]
166 to 168 | Cn1c(Cl)c(C=O)c2ccc(Cl)cc21
153 to 154 | Cc1ccccc1NC(=NC#N)NC(NC(=O)CCCc1ccccc1)C(C)(C)C (stereo unspecified)
111 to 112 | COC(=O)CCC#Cc1cc(F)cc([N+](=O)[O-])c1
188 | CS(=O)(=O)Nc1ccc(-n2nc(C(F)(F)F)nc2-c2ccc(S(C)(=O)=O)cc2)cc1
78.9 to 80.2 | CC(C)(C)OC(=O)N1CC2CN(c3nc(C4=NOC(c5c(F)cccc5F)C4)cs3)CC2C1 (stereo unspecified)
109 to 110 | CCCn1ccc2c(NCCc3ccc(OC)cc3)cccc2c1=O
159 to 161 | CC(C(N)=O)c1ccc2c(c1)C(=O)Cc1cc(C(F)(F)F)ccc1S2 (stereo unspecified)

melting point [°C] | Structure (SMILES)
94 to 95 | CN(C)CCNC(=O)N1CCC(Oc2cccc(Cl)c2Cl)C1 (stereo unspecified)
194 to 195 | Cc1oc(-c2ccccc2)nc1COc1ccc2c(c1)CCC(CC1SC(=O)NC1=O)C2 (stereo unspecified)
246 | O=c1c2c(O)c(O)ccc2c2cc(O)c(O)cc2n1Cc1ccc(Cl)c(Cl)c1
299 to 301 | O=C1NC(=O)C(=Cc2cc(O)c(O)c(Cl)c2)S1
192 to 220 | COc1cc(C2CCN(C[C@H](O)CO)CC2)ccc1Nc1ncc2ccc(-c3cccc(S(=O)(=O)NC(C)(C)C)c3)n2n1
107 | CCCCCCCCCCC/C=C/c1ccc(C=CC(=O)O)cc1
176 | CC(Cc1ccncc1)(NC(=O)OC1C2CC3CC(C2)CC1C3)C(=O)NCCc1ccccc1 (stereo unspecified)
81 to 83 | CN(C(=O)c1cccc(C(F)(F)F)c1)c1ccccc1CCCCC(=O)O
109 to 110 | COC(=O)c1cc(OC)c(OC)c(OC)c1-c1c(C(=O)OC)cc2c(c1OC)OCO2
130 | CNC(c1nc(-c2ccc3c(c2)Nc2ccccc2S3)cs1)C(C)C (stereo unspecified)
56 to 59 | C=Cc1ccc(CN2CCNCCNCC2)cc1
85 to 87 | CCCCCCCCNC(=O)ON=C(C1=CC(=O)C(C)(C2CCCCC2)O1)c1ccccc1 (stereo unspecified)
209 to 211 | CC(=O)N1C(=O)N(COCc2ccccc2)C(=O)C12c1ccccc1NC(=O)N2C (stereo unspecified)
153 to 156 | CC(Br)C(=O)c1ccc2c(c1)C(C)NC(=O)N2 (stereo unspecified)
88 to 90 | O=CCCNC(=O)c1ccc[nH]1
201 to 202 | Cn1nc(Cl)cc(Nc2ccccn2)c1=O
88.1 to 92 | C[C@@H]1CN(c2c(C=O)cc(Br)c(F)c2F)C[C@H](C)O1
172 to 174 | CC(C)C(C)(NC(=O)c1nc2ccccc2cc1C(=O)O)C(N)=O (stereo unspecified)

Structure (SMILES) | melting point [°C]
COc1ccc(-c2c(-c3cc(OC)c(OC)c(OC)c3)ncn2-c2ccccc2)cc1O | 176 to 177
CCOC(=O)NC1(c2ccccc2Cl)CCCCC1=O (stereo unspecified) | 112 to 114
COc1ccc(C=Cc2cc(OC)cc(OC)c2)cc1 | 55 to 56
CC1(C)CCC(C)(C)c2cc(-c3cc(-c4ccc(C=O)cc4)on3)ccc21 | 179 to 180

— a melting point compilation (Tetko et al.; mined from patent text by program, amines drawn as free bases though some values may be those of a salt)
